This assay deals with T1, KRAS G12C 1-169, his-tagged protein, GDP-loaded (Homo sapiens, UniProt P01116, G12C).
T1 construct: KRAS G12C 1-169, his-tagged protein, GDP-loaded
T1 sequence (P01116 1-169 isoform P01116-2 G12C): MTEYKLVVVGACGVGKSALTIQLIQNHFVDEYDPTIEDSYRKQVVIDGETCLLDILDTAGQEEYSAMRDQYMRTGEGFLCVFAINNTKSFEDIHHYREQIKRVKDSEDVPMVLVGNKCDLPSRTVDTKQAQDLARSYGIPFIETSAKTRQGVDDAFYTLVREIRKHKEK
Put plainly: Biochemical assay: covalent binding to KRAS G12C analyzed by mass spectrometry. The settings on record: compounds 247-342, measured at 30 min. The method, then: Compounds were tested for activity as follows:
Compounds were diluted to 50× final test concentration in DMSO in 96-well storage plates. […] Reactions were mixed carefully and thoroughly by pipetting up/down with a 200 μl multi-channel pipettor. […] 5 μl of 2% formic acid (Fisher cat#A117) in DI H2O was then added to each well followed by mixing with a pipette. The plate was then resealed with aluminum seal and stored on dry ice until analyzed as described below.
The above described assays were analyzed by mass spectrometry according to the following procedure:
The MS instrument is set to positive polarity, 2 GHz resolution, and low mass (1700) mode and allowed to equilibrate for 30 minutes. The instrument is then calibrated, switched to acquisition mode and the appropriate method loaded.
After another 30 minute equilibration time, a blank batch (i.e., buffer) is run to ensure equipment is operating properly. The samples are thawed at 37° C. for 10 minutes, briefly centrifuged, and transfer to the bench top. Wells A1 and H12 are spiked with 1 μL 500 μM internal standard peptide, and the plates centrifuged at 2000×g for 5 minutes. The method is then run and masses of each individual well recorded.
The masses (for which integration data is desired) for each well are pasted into the platemap and exported from the analysis. Masses for the internal standards are exported as well. The data at 50 ppm is extracted for the +19 charge state, and identity of well A1 is assigned using the internal standard spike and integrated. Peak data is exported as a TOF list and the above steps are repeated individually, for the +20, 21, 22, 23, 24, and 25 charge states.
On to `C=CC(=O)N1CCN(c2ncnc3cc(-c4c(O)cccc4F)c(Cl)c(C(F)(F)F)c23)CC1` [Compound 318, 1-(4-(6-chloro-7-(2-fluoro-6-hydroxyphenyl)-5-(trifluoromethyl)quinazolin-4-yl)piperazin-1-yl)prop-2-en-1-one], for which the Binding % entry is “+ (+indicates binding activity from 5% to 25%)”. The entry for `C=CC(=O)N1CCN(c2nc(N)nc3cc(-c4c(C)ccc5[nH]ncc45)c(Cl)cc23)CC1` [Compound 319, 1-(4-(2-amino-6-chloro-7-(5-methyl-1H-indazol-4-yl)quinazolin-4-yl)piperazin-1-yl)prop-2-en-1-one] is “++ (++indicates binding activity greater than 25% and up to 50%)”; for `C=CC(=O)N1CCN(c2ncnc3c(F)c(-c4c(C)ccc5[nH]ncc45)c(Cl)cc23)CC1CO` (stereo not drawn) [Compound 320, 1-(4-(6-chloro-8-fluoro-7-(5-methyl-1H-indazol-4-yl)quinazolin-4-yl)-2-(hydroxymethyl)piperazin-1-yl)prop-2-en-1-one] it is “++ (++indicates binding activity greater than 25% and up to 50%)”. The entry for `C=CC(=O)N1CCN(c2ncnc3c(O)c(-c4ccc(F)cc4F)c(Cl)cc23)CC1` [Compound 321, 1-(4-(6-chloro-7-(2,4-difluorophenyl)-8-hydroxyquinazolin-4-yl)piperazin-1-yl)prop-2-en-1-one] is “+ (+indicates binding activity from 5% to 25%)”. The entry for `C=CC(=O)N1CCN(c2nc(Nc3cnn(C)c3)nc3c(F)c(-c4c(C)ccc5[nH]ncc45)c(Cl)cc23)CC1` [Compound 322, 1-(4-(6-chloro-8-fluoro-7-(5-methyl-1H-indazol-4-yl)-2-(1-methyl-1H-pyrazol-4-ylamino)quinazolin-4-yl)piperazin-1-yl)prop-2-en-1-one] is “+++ (+++indicates binding activity greater than 50% and up to 75%)”. Take `C=CC(=O)N1CCN(c2nc(OCCN(C)C)nc3c(F)c(-c4c(C)ccc5[nH]ncc45)c(Cl)cc23)CC1` [Compound 323, 1-(4-(6-chloro-2-(2-(dimethylamino)ethoxy)-8-fluoro-7-(5-methyl-1H-indazol-4-yl)quinazolin-4-yl)piperazin-1-yl)prop-2-en-1-one]: the Binding % result was “+++ (+++indicates binding activity greater than 50% and up to 75%)”. On to `C=CC(=O)N1CCN(c2ncnc3c(F)c(-c4cccc5c(C)n[nH]c45)c(Cl)cc23)CC1` [Compound 324, 1-(4-(6-chloro-8-fluoro-7-(3-methyl-1H-indazol-7-yl)quinazolin-4-yl)piperazin-1-yl)prop-2-en-1-one], for which the Binding % result was “+ (+indicates binding activity from 5% to 25%)”. As for `CN(C)C/C=C/C(=O)N1CCN(c2ncnc3c(F)c(-c4cc(O)cc5ccccc45)c(Cl)cc23)CC1` [Compound 325, (E)-1-(4-(6-chloro-8-fluoro-7-(3-hydroxynaphthalen-1-yl)quinazolin-4-yl)piperazin-1-yl)-4-(dimethylamino)but-2-en-1-one], the Binding % entry is “++ (++indicates binding activity greater than 25% and up to 50%)”. The entry for `C=CC(=O)N1CCN(c2nc(=O)[nH]c3cc(-c4c(C)ccc5[nH]ncc45)c(Cl)cc23)CC1` [Compound 326, 4-(4-acryloylpiperazin-1-yl)-6-chloro-7-(5-methyl-1H-indazol-4-yl)quinazolin-2(1H)-one] is “+ (+indicates binding activity from 5% to 25%)”. Then `C=CC(=O)N1CCN(c2ncnc3c(F)c(-c4c(C)ccc5[nH]ncc45)c(Cl)cc23)CC1C` (stereo not drawn) [Compound 327, 1-(4-(6-chloro-8-fluoro-7-(5-methyl-1H-indazol-4-yl)quinazolin-4-yl)-2-methylpiperazin-1-yl)prop-2-en-1-one], with “++ (++indicates binding activity greater than 25% and up to 50%)”. As to `C/C=C/C(=O)N1CCN(c2ncnc3c(F)c(-c4cc(O)cc5ccccc45)c(Cl)cc23)CC1C` (stereo not drawn) [Compound 328, (E)-1-(4-(6-chloro-8-fluoro-7-(3-hydroxynaphthalen-1-yl)quinazolin-4-yl)-2-methylpiperazin-1-yl)but-2-en-1-one], the Binding % entry is “+ (+indicates binding activity from 5% to 25%)”. The entry for `C=CC(=O)N1CCN(c2nc(OCCCN(C)C)nc3cc(-c4c(C)ccc5[nH]ncc45)c(Cl)cc23)CC1` [Compound 329, 1-(4-(6-chloro-2-(3-(dimethylamino)propoxy)-7-(5-methyl-1H-indazol-4-yl)quinazolin-4-yl)piperazin-1-yl)prop-2-en-1-one] is “++ (++indicates binding activity greater than 25% and up to 50%)”. Then `C=CC(=O)N1CCN(c2nc(NC3CCOC3)nc3cc(-c4c(C)ccc5[nH]ncc45)c(Cl)cc23)CC1` (stereo not drawn) [Compound 330, 1-(4-(6-chloro-7-(5-methyl-1H-indazol-4-yl)-2-(tetrahydrofuran-3-ylamino)quinazolin-4-yl)piperazin-1-yl)prop-2-en-1-one], with “++ (++indicates binding activity greater than 25% and up to 50%)”; and `C=CC(=O)N1CCN(c2ncnc3c(F)c(-c4c(F)ccc5[nH]ncc45)c(Cl)cc23)CC1` [Compound 331, 1-(4-(6-chloro-8-fluoro-7-(5-fluoro-1H-indazol-4-yl)quinazolin-4-yl)piperazin-1-yl)prop-2-en-1-one], with “++ (++indicates binding activity greater than 25% and up to 50%)”; and `C=CC(=O)N1CCN(c2nc(-c3cncs3)nc3c(F)c(-c4c(C)ccc5[nH]ncc45)c(Cl)cc23)CC1` [Compound 332, 1-(4-(6-chloro-8-fluoro-7-(5-methyl-1H-indazol-4-yl)-2-(thiazol-5-yl)quinazolin-4-yl)piperazin-1-yl)prop-2-en-1-one], with “++ (++indicates binding activity greater than 25% and up to 50%)”. `Cc1ccc2[nH]ncc2c1-c1c(Cl)cc2c(N3CCN(C(=O)/C=C/CN(C)C)CC3)nc(-c3cncs3)nc2c1F` [Compound 333, (E)-1-(4-(6-chloro-8-fluoro-7-(5-methyl-1H-indazol-4-yl)-2-(thiazol-5-yl)quinazolin-4-yl)piperazin-1-yl)-4-(dimethylamino)but-2-en-1-one]: the Binding % entry is given as “+ (+indicates binding activity from 5% to 25%)”. Turning to `C=CC(=O)N1CCN(c2ncnc3c(F)c(-c4c(C)ccc5[nH]ncc45)c(Cl)cc23)CC1` [Compound 334, 1-(4-(6-chloro-8-fluoro-7-(5-methyl-1H-indazol-4-yl)quinazolin-4-yl)piperazin-1-yl)prop-2-en-1-one], the Binding % entry was “++++ (++++indicates binding activity greater than 75%)”. The entry for `NC/C=C/C(=O)N1CCN(c2ncnc3c(F)c(-c4cc(O)cc5ccccc45)c(Cl)cc23)CC1` [Compound 335, (E)-4-amino-1-(4-(6-chloro-8-fluoro-7-(3-hydroxynaphthalen-1-yl)quinazolin-4-yl)piperazin-1-yl)but-2-en-1-one] is “++++ (++++indicates binding activity greater than 75%)”; for `C=CC(=O)N1CCN(c2c(C#N)cnc3c(F)c(-c4c(C)ccc5[nH]ncc45)c(Cl)cc23)CC1C` (stereo not drawn) [Compound 336, 4-(4-acryloyl-3-methylpiperazin-1-yl)-6-chloro-8-fluoro-7-(5-methyl-1H-indazol-4-yl)quinoline-3-carbonitrile] it is “+++ (+++indicates binding activity greater than 50% and up to 75%)”. The entry for `C=CC(=O)N1CCN(c2ncnc3c(F)c(-c4cc(C(F)F)cc5ccccc45)c(Cl)cc23)CC1` [Compound 337] is “+ (+indicates binding activity from 5% to 25%)”. The entry for `C=CC(=O)N1CCN(c2nc(N(C)C)nc3c(F)c(-c4c(C)ccc5[nH]ncc45)c(Cl)cc23)CC1` [Compound 338, 1-(4-(6-chloro-2-(dimethylamino)-8-fluoro-7-(5-methyl-1H-indazol-4-yl)quinazolin-4-yl)piperazin-1-yl)prop-2-en-1-one] is “++ (++indicates binding activity greater than 25% and up to 50%)”; for `C=CC(=O)N1CCN(c2nc(OCCCN(C)C)nc3c(F)c(-c4c(C)ccc5[nH]ncc45)c(Cl)cc23)CC1` [Compound 339, 1-(4-(6-chloro-2-(3-(dimethylamino)propoxy)-8-fluoro-7-(5-methyl-1H-indazol-4-yl)quinazolin-4-yl)piperazin-1-yl)prop-2-en-1-one] it is “++++ (++++indicates binding activity greater than 75%)”. As for `C=CC(=O)N1CCN(c2ncnc3c(F)c(-c4c(C)ccc5[nH]nc(F)c45)c(Cl)cc23)CC1` [Compound 340, 1-(4-(6-chloro-8-fluoro-7-(3-fluoro-5-methyl-1H-indazol-4-yl)quinazolin-4-yl)piperazin-1-yl)prop-2-en-1-one], the Binding % result was “++++ (++++indicates binding activity greater than 75%)”.

In the case of `C=CC(=O)N1CCN(c2nc(OCCN(C)C)nc3c(F)c(-c4c(O)cccc4F)c(Cl)cc23)CC1` [Compound 341, 1-(4-(6-chloro-2-(2-(dimethylamino)ethoxy)-8-fluoro-7-(2-fluoro-6-hydroxyphenyl)quinazolin-4-yl)piperazin-1-yl)prop-2-en-1-one], the Binding % result is “++++ (++++indicates binding activity greater than 75%)”.

These data come from patent US10111874B2, “Combination therapies for treatment of cancer” (Araxes Pharma LLC, priority 2014, dated 2018).
